Where two headings read alike, the source gives them in different places. Values belong to the compound of their own block, whether it stands above or below them. Where no end group is shown, it is not given here.
Columns and labels:
[1] = biological target: HLA-B*35:01 (Homo sapiens, UniProt P01889, A329T/A93T/A95T/C349S/D201E/D98Y/E176V/E187L/E204Q/E69T/I218V/K202T/L119I/Q94N/R155S/R180L/S121R/S35A/S48A/T118I/V127L/V306I/V36M/Y140S/Y91F); test: HLA-peptide competition binding assay, B*35:01; conditions: read-out: IC50 nM, target assay B*35:01
[2] = biological target: HLA-B*07:02 (Homo sapiens, UniProt P01889); test: HLA-peptide competition binding assay, B*07:02; conditions: read-out: IC50 nM, target assay B*07:02
[3] = biological target: HLA-B*51:01 (Homo sapiens, UniProt P01889, A329T/A93T/A95T/C349S/D138N/D201E/D98Y/E187L/E204Q/E69T/G107R/I218V/K202T/L105A/L119W/N104I/Q94N/R106L/R155S/R180L/S101N/S121T/S35A/S48A/V306I/V36M/Y195H/Y91F); test: HLA-peptide competition binding assay, B*51:01; conditions: read-out: IC50 nM, target assay B*51:01
[4] = biological target: HLA-A*11:01 (Homo sapiens, UniProt P04439, A114D/D185E/E176A/F33Y/L180Q/S129P/T187R); test: HLA-peptide competition binding assay, A*11:01; conditions: read-out: IC50 nM, target assay A*11:01
[5] = biological target: HLA-B*08:01 (Homo sapiens, UniProt P01889, A93T/A95T/D138N/E176V/E187T/K202T/Q94N/R180D/S35A/V36M/Y33D/Y91F); test: biochemical
Protocol: The 138 peptides were tested for their capacity to bind their respective HLA class I restricting allele(s) in classical competition assays based on the inhibition of the binding of high affinity radiolabeled ligands to purified major histocompatibility (MHC) molecules, as described in the Methods. In instances where the precise restriction was not available, binding to the most common representative subtype from the same allele family was assayed (e.g., A*02:01 for A02; B*07:02 for B7; A*03:01 for A03, etc.). For epitopes reported to be restricted by multiple alleles, each restriction is shown separately.
Peptide-MHC affinities were measured using classical competition assays based on the inhibition of binding of a high affinity radiolabeled ligand to purified HLA class I molecules, as previously described. Briefly, 0.1–1 nM of radiolabeled peptide is co-incubated at room temperature with purified MHC in the presence of a cocktail of protease inhibitors. Following a two-day incubation, MHC bound radioactivity is determined by capturing MHC/peptide complexes on W6/32 (anti-HLA class I) mAb coated Lumitrac 600 plates (Greiner Bio-one, Frickenhausen, Germany), and bound cpm measured using the TopCount (Packard Instrument Co., Meriden, CT) microscintillation counter. […] Under the conditions utilized, where [label] < [MHC] and IC50 ≥ [MHC], measured IC50 values are reasonable approximations of true Kd. Each competitor peptide is tested at six different concentrations covering a 100,000-fold range, and in three or more independent experiments. As a positive control, the unlabeled version of the radiolabeled probe is also tested in each experiment.

[6] = biological target: HLA-A*24:02 (Homo sapiens, UniProt P04439, D101N/D140Y/D185E/E176V/E190D/F33S/G103R/G107R/I119L/I121M/I306V/K335N/L105A/L180Q/L300P/N151K/N90K/Q86E/Q94H/R106L/R138H/R89G/T104I/T345S/V100E/W191G/Y123F); test: HLA-peptide competition binding assay, A*24:02; conditions: read-out: IC50 nM, target assay A*24:02
[7] = biological target: HLA-A*02:01 (Homo sapiens, UniProt P04439, D140Y/D185E/D98H/E176V/E277Q/G131W/G231S/I119V/I121R/I166T/I218V/L300P/L318F/N151K/N90K/P208A/P217A/Q86G/Q94H/R138H/R169H/T345S); test: HLA-peptide competition binding assay, A*02:01
[8] = biological target: HLA-A*03:01 (Homo sapiens, UniProt P04439); test: HLA-peptide competition binding assay, A*03:01
[9] = biological target: HLA-A*01:01 (Homo sapiens, UniProt P04439, A114D/A174V/A182V/D101N/D185E/E176A/E190D/L180R/Q94H/R68K/S129P/T187R/V100A/V91M/W191G); test: HLA-peptide competition binding assay, A*01:01; conditions: read-out: IC50 nM, target assay A*01:01
[10] = biological target: HLA-B*18:01 (Homo sapiens, UniProt P01889, A329T/A93T/A95T/C349S/D201E/D54G/D98Y/E176V/E187T/E204Q/E69T/K202T/Q94N/R155S/R180L/S121R/V306I/Y140S/Y195H/Y33H/Y91S); test: HLA-peptide competition binding assay, B*18:01; conditions: read-out: IC50 nM, target assay B*18:01
[11] = read-out: IC50 nM, target assay A*02:01
[12] = read-out: A*02:01 binding (IC50 nM) WT
[13] = unmodified (WT) insulin peptide, competition binding assay, a dash indicates IC50 >40,000 nM, read-out: A*02:01 binding (IC50 nM) WT

- IC50 [1]: 12300 nM
- IC50 [2]: 610 nM
- IC50 [3]: 1160 nM
Compound: LPLLALLAL [LPLLALLAL]

- IC50 [1]: > 40000 nM
Compound: TSEHSHFSL

- IC50 [4]: 18300 nM
Compound: RFKMFPEVK

Compound: ALWMRLLPLL
- IC50 [5]: 0.033 µM
- IC50 [6]: 6180 nM
- IC50 [7, 11]: 190 nM

- IC50 [4]: 27200 nM
- IC50 ([8]; read-out: IC50 nM, target assay A*03:01): 27400 nM
- IC50 [7, 12]: 23200 nM
- IC50 [9]: > 40000 nM
Compound: LVCGERGFFY

- IC50 [6]: 15100 nM
- IC50 [9]: > 40000 nM
Compound: ALWGPDPAAAF

Compound: ALYLVCGER
- IC50 [4]: 28300 nM
- IC50 [8]: 2790 nM
- IC50 [7]: 1790 nM

Compound: ALWMRLLPL [reference compound]
- IC50 [5]: 0.107 µM
- IC50 [7, 11]: 218 nM

Compound: FYTPKTRRE [reference compound]
- IC50 [5]: 13 µM
- IC50 [7, 13]: > 40000 nM

- IC50 [6]: 5250 nM
- IC50 [7, 12]: 13400 nM
Compound: CC(C)C[C@H](NC(=O)[C@H](Cc1ccc(O)cc1)NC(=O)[C@@H](N)CC(C)C)C(=O)N[C@H](C(=O)N[C@@H](CS)C(=O)NCC(=O)N[C@@H](CCC(=O)O)C(=O)N[C@@H](CCCNC(=N)N)C(=O)NCC(=O)N[C@@H](Cc1ccccc1)C(=O)O)C(C)C [reference compound]

Compound: VCGERGFFYT
- IC50 [5]: > 40 µM
- IC50 [10]: 626 nM
- IC50 [7, 11]: > 40000 nM
- IC50 [7, 13]: > 40000 nM
- IC50 [9]: > 40000 nM

Compound: GERGFFYT
- IC50 [5]: 1.38 µM
- IC50 [9]: > 40000 nM

- IC50 [6]: 10200 nM
- IC50 [7, 11]: 145 nM
Compound: RLLPLLALL [reference compound]

- IC50 [6]: 545 nM
- IC50 [7, 12]: 266 nM
Compound: LWMRLLPLL [reference compound]

- IC50 [7, 12]: 3960 nM
- IC50 [9]: 30300 nM
Compound: GSHLVEALY [reference compound]

- IC50 [4]: > 40000 nM
Compound: MFPEVKEKG

Source: article PMC5863483, “Low HLA binding of diabetes-associated CD8+ T-cell epitopes is increased by post translational modifications” (BMC Immunology, 2018)
